# Source: patent US12410208B2, “(2-acetamidyl)thio-beta-D-galactopyranoside derivatives” (Idorsia Pharmaceuticals Ltd, priority 2020, dated 2025)
# Read-outs that look alike come from different tables or passages of the source.
# Assays:
# [1] = target: biotinylated human Gal-3 (hGal-3) (Homo sapiens, UniProt P17931); assay: Competitive binding assay: biotinylated hGal-3 binding to microplate-adsorbed asialofetuin (ASF), spectrophotometric
# Procedure: If not explicitly mentioned otherwise, the inhibition data refer to the binding of biotinylated human Gal-3 (hGal-3).
# (§1) Biological Assay Evaluation of Compound Inhibitory Activity (IC50)
# The inhibitory activity of compounds is determined in competitive binding assays.
# Briefly, compounds are serially diluted in DMSO (working dilutions).
# (§2) Plates are incubated for 3 hours at 4° C., then washed with cold assay buffer (3×50 uL), incubated for 1 hour with 25 μL/well of a streptavidin-peroxidase solution (diluted in assay buffer to 80 ng/mL) at 4° C., followed by further washing steps with assay buffer (3×50 uL). Finally, 25 μL/well of ABTS substrate is added.
# (§3) The calculated IC50 values may fluctuate depending on the daily assay performance. Fluctuations of this kind are known to those skilled in the art. IC50 values from several measurements are given as mean values.
# human Gal-1 (hGal-1) = human Gal-1 (hGal-1) (Homo sapiens, UniProt P09382); assay: Competitive binding assay: biotinylated hGal-1 binding to microplate-adsorbed asialofetuin (ASF), spectrophotometric; conditions: hGal-1 binding to asialofetuin; Table 15; R and S epimers of selected Examples also listed; read-out: IC50 (Galectin-1 inhibition)
# Procedure: as §1
# The inhibitory activity of compounds is determined in competitive binding assays. This spectrophotometric assay measures the binding of biotinylated human Gal-3 (hGal-3) or human Gal-1 (hGal-1), respectively, to a microplate-adsorbed glycoprotein, asialofetuin (ASF) (Proc Natl Acad Sci USA. 2013 Mar. 26; 110(13):5052-7.).
# Briefly, compounds are serially diluted in DMSO (working dilutions). ASF-coated 384well plates are supplemented with 22.8 μL/well of biotinylated hGal-3 or hGal-1 in assay buffer (i.e. 300-1000 ng/mL biotinylated hGal-3 or hGal-1) to which 1.2 μL of compound working dilutions are added and mixed.
# as §2, §3
# [2] = Gal-3 inhibition, Table 5, read-out: IC50
# [3] = Table 12, hGal-3, read-out: IC50 (Gal-3 inhibition)
# Chain of biotinylated human Gal-3 (hGal-3) (P17931 whole entry): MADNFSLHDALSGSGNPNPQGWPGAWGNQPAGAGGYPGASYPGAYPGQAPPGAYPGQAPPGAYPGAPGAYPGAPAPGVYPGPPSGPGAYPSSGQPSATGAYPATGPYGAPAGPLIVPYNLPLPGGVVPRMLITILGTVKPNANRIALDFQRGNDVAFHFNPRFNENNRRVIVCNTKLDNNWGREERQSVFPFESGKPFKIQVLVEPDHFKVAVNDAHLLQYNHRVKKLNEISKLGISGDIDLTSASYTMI
# Chain of human Gal-1 (hGal-1) (P09382 whole entry): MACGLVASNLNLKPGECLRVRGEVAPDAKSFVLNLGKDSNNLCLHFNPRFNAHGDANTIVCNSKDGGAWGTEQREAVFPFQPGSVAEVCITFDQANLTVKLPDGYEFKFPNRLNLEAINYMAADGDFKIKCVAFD
IC50 (human Gal-1 (hGal-1)) [µM],Molecule,also measured
13.4,"CN(CC1(F)CCCC1)C(=O)C(S[C@@H]1O[C@H](CO)[C@H](O)[C@H](n2cc(-c3cc(F)c(F)c(F)c3)nn2)[C@H]1O)C1(O)CCC(F)(F)CC1 (stereo partly drawn) [Example 2.44.223R., 2-(4,4-Difluoro-1-hydroxycyclohexyl)-2-(((2S,3R,4S,5R,6R)-3,5-dihydroxy-6-(hydroxymethyl)-4-(4-(3,4,5-trifluorophenyl)-1H-1,2,3-triazol-1-yl)tetrahydro-2H-pyran-2-yl)thio)-N-((1-fluorocyclopentyl)methyl)-N-methylacetamide]","IC50 [1, 2]: 3.57 µM"
1.8,"CN(C)C(=O)C(S[C@@H]1O[C@H](CO)[C@H](O)[C@H](n2cc(-c3cc(F)c(F)c(F)c3)nn2)[C@H]1O)C1(O)CCOCC1 (stereo partly drawn) [Example 2.41.201., 2-(((2S,3R,4S,5R,6R)-3,5-Dihydroxy-6-(hydroxymethyl)-4-(4-(3,4,5-trifluorophenyl)-1H-1,2,3-triazol-1-yl)tetrahydro-2H-pyran-2-yl)thio)-2-(4-hydroxytetrahydro-2H-pyran-4-yl)-N,N-dimethylacetamide]","IC50 ([1]; Gal-3 inhibition, Table 4, read-out: IC50): 0.18 µM"
8.78,"CO[C@@H]1[C@@H](n2cc(-c3cc(F)c(F)c(F)c3)nn2)[C@@H](O)[C@@H](CO)O[C@H]1S[C@@H](C(=O)N(C)CC(C)(C)F)C1(O)CCC(F)(F)CC1 [Example 2.44.222R.I., (R)-2-(4,4-Difluoro-1-hydroxycyclohexyl)-N-(2-fluoro-2-methylpropyl)-2-(((2S,3R,4S,5R,6R)-5-hydroxy-6-(hydroxymethyl)-3-methoxy-4-(4-(3,4,5-trifluorophenyl)-1H-1,2,3-triazol-1-yl)tetrahydro-2H-pyran-2-yl)thio)-N-methylacetamide]","IC50 [1, 3]: 7.9 µM"
0.36,"CO[C@@H]1[C@@H](n2cc(-c3cc(F)c(F)c(F)c3)nn2)[C@@H](O)[C@@H](CO)O[C@H]1SC(C(=O)NC1CCOCC1)C1(O)CCC(F)(F)CC1 (stereo partly drawn) [Example 2.44.249.I., 2-(4,4-Difluoro-1-hydroxycyclohexyl)-2-(((2S,3R,4S,5R,6R)-5-hydroxy-6-(hydroxymethyl)-3-methoxy-4-(4-(3,4,5-trifluorophenyl)-1H-1,2,3-triazol-1-yl)tetrahydro-2H-pyran-2-yl)thio)-N-(tetrahydro-2H-pyran-4-yl)acetamide]","IC50 [1, 3]: 0.08 µM"
22.6,"CN(CC(C)(C)C)C(=O)[C@H](S[C@@H]1O[C@H](CO)[C@H](O)[C@H](n2cc(-c3cc(F)c(F)c(F)c3)nn2)[C@H]1O)C1(O)CCC1 [Example 2.34.228R., (R)-2-(((2S,3R,4S,5R,6R)-3,5-Dihydroxy-6-(hydroxymethyl)-4-(4-(3,4,5-trifluorophenyl)-1H-1,2,3-triazol-1-yl)tetrahydro-2H-pyran-2-yl)thio)-2-(1-hydroxycyclobutyl)-N-methyl-N-neopentylacetamide]","IC50 [1, 2]: 5.9 µM"
0.3,"CO[C@@H]1[C@@H](n2cc(-c3cc(F)c(F)c(F)c3)nn2)[C@@H](O)[C@@H](CO)O[C@H]1SC(C(=O)NCC(F)(F)F)C1(O)CCC(F)(F)CC1 (stereo partly drawn) [Example 2.44.254.I., 2-(4,4-Difluoro-1-hydroxycyclohexyl)-2-(((2S,3R,4S,5R,6R)-5-hydroxy-6-(hydroxymethyl)-3-methoxy-4-(4-(3,4,5-trifluorophenyl)-1H-1,2,3-triazol-1-yl)tetrahydro-2H-pyran-2-yl)thio)-N-(2,2,2-trifluoroethyl)acetamide]","IC50 [1, 3]: 0.13 µM"
0.05,CN(C(=O)[C@@H](S[C@@H]1O[C@H](CO)[C@H](O)[C@H](n2cc(-c3cc(F)c(F)c(F)c3)nn2)[C@H]1O)C1(O)CCOCC1)c1ccccc1 [Example 2.41.231S.],"IC50 ([1]; Table 9, hGal-3, read-out: IC50 (Gal-3 inhibition)): 0.07 µM"
> 39.8,"CCN(C)C(=O)[C@H](S[C@@H]1O[C@H](CO)[C@H](O)[C@H](n2cc(-c3cc(F)c(F)c(F)c3)nn2)[C@H]1O)C1(O)CCOCC1 [Example 2.41.203R., (R)-2-(((2S,3R,4S,5R,6R)-3,5-Dihydroxy-6-(hydroxymethyl)-4-(4-(3,4,5-trifluorophenyl)-1H-1,2,3-triazol-1-yl)tetrahydro-2H-pyran-2-yl)thio)-N-ethyl-2-(4-hydroxytetrahydro-2H-pyran-4-yl)-N-methylacetamide]","IC50 [1, 2]: 4.43 µM"
10.9,"CC(C)CN(C)C(=O)[C@H](S[C@@H]1O[C@H](CO)[C@H](O)[C@H](n2cc(-c3cc(F)c(F)c(F)c3)nn2)[C@H]1O)C1(O)CCOCC1 [Example 2.41.200R., (R)-2-(((2S,3R,4S,5R,6R)-3,5-Dihydroxy-6-(hydroxymethyl)-4-(4-(3,4,5-trifluorophenyl)-1H-1,2,3-triazol-1-yl)tetrahydro-2H-pyran-2-yl)thio)-2-(4-hydroxytetrahydro-2H-pyran-4-yl)-N-isobutyl-N-methylacetamide]","IC50 ([1]; Gal-3 inhibition, Table 2, read-out: IC50): 4.01 µM"
0.27,"CCN(C)C(=O)C(S[C@@H]1O[C@H](CO)[C@H](O)[C@H](n2cc(-c3cc(F)cc(F)c3)nn2)[C@H]1O)C1(O)CCOCC1 (stereo partly drawn) [Example 10.41.203., 2-(((2S,3R,4S,5R,6R)-4-(4-(3,5-Difluorophenyl)-1H-1,2,3-triazol-1-yl)-3,5-dihydroxy-6-(hydroxymethyl)tetrahydro-2H-pyran-2-yl)thio)-N-ethyl-2-(4-hydroxytetrahydro-2H-pyran-4-yl)-N-methylacetamide]","IC50 ([1]; Table 11, hGal-3, read-out: IC50 (Gal-3 inhibition)): 0.1 µM"
0.83,"CO[C@@H]1[C@@H](n2cc(-c3cc(F)c(F)c(F)c3)nn2)[C@@H](O)[C@@H](CO)O[C@H]1SC(C(=O)NCCC(C)(C)C)C1(O)CCC(F)(F)CC1 (stereo partly drawn) [Example 2.44.252.I., 2-(4,4-Difluoro-1-hydroxycyclohexyl)-N-(3,3-dimethylbuty1)-2-(((2S,3R,4S,5R,6R)-5-hydroxy-6-(hydroxymethyl)-3-methoxy-4-(4-(3,4,5-trifluorophenyl)-1H-1,2,3-triazol-1-yl)tetrahydro-2H-pyran-2-yl)thio)acetamide]","IC50 [1, 3]: 0.32 µM"
0.08,"CO[C@@H]1[C@@H](n2cc(-c3cc(F)c(F)c(F)c3)nn2)[C@@H](O)[C@@H](CO)O[C@H]1SC(C(=O)N(C)CC1CC1)C1(O)CCC(F)(F)CC1 (stereo partly drawn) [Example 2.44.218.I., N-(Cyclopropylmethyl)-2-(4,4-difluoro-1-hydroxycyclohexyl)-2-(((2S,3R,4S,5R,6R)-5-hydroxy-6-(hydroxymethyl)-3-methoxy-4-(4-(3,4,5-trifluorophenyl)-1H-1,2,3-triazol-1-yl)tetrahydro-2H-pyran-2-yl)thio)-N-methylacetamide]","IC50 [1, 3]: 0.03 µM"
0.18,CCN(C(=O)C(S[C@@H]1O[C@H](CO)[C@H](O)[C@H](n2cc(-c3cc(F)c(F)c(F)c3)nn2)[C@H]1OC)C1(O)CCC(F)(F)CC1)C1CCOCC1 (some centres unmarked) [Example 2.44.257.I.],"IC50 ([1]; Table 10, hGal-3, read-out: IC50 (Gal-3 inhibition)): 0.07 µM"
0.82,"CC1CN(C(=O)[C@@H](S[C@@H]2O[C@H](CO)[C@H](O)[C@H](n3cc(-c4cc(F)c(F)c(F)c4)nn3)[C@H]2O)C(C)(C)O)C1 [Example 2.31.205S., (S)-2-(((2S,3R,4S,5R,6R)-3,5-dihydroxy-6-(hydroxymethyl)-4-(4-(3,4,5-trifluorophenyl)-1H-1,2,3-triazol-1-yl)tetrahydro-2H-pyran-2-yl)thio)-3-hydroxy-3-methyl-1-(3-methylazetidin-1-yl)butan-1-one]",
2.15,"CC(C)(O)[C@@H](S[C@@H]1O[C@H](CO)[C@H](O)[C@H](n2cc(-c3cc(F)c(F)c(F)c3)nn2)[C@H]1O)C(=O)N1CCCC1 [Example 2.31.211R, (R)-2-(((2S,3R,4S,5R,6R)-3,5-Dihydroxy-6-(hydroxymethyl)-4-(4-(3,4,5-trifluorophenyl)-1H-1,2,3-triazol-1-yl)tetrahydro-2H-pyran-2-yl)thio)-3-hydroxy-3-methyl-1-(pyrrolidin-1-yl)butan-1-one]",
0.2,CCC(O)C(S[C@@H]1O[C@H](CO)[C@H](O)[C@H](n2cc(-c3cc(F)c(F)c(F)c3)nn2)[C@H]1O)C(=O)N(C)CC1CC1 (some centres unmarked) [Example 2.60.218],
1.46,CCN(C)C(=O)C(S[C@@H]1O[C@H](CO)[C@H](O)[C@H](n2cc(-c3cc(F)c(F)c(F)c3)nn2)[C@H]1O)C(O)Cc1ccccc1 (some centres unmarked) [Example 2.64.203],

Molecule,IC50 (human Gal-1 (hGal-1)) [µM],also measured
"(2R,3R,4S,5R,6S)-2-(Acetoxymethyl)-6-(((S)-2-(ethyl(methyl)amino)-1-(3-hydroxy-1-(methoxycarbonyl)azetidin-3-yl)-2-oxoethyl)thio)-4-(4-(3,4,5-trifluorophenyl)-1H-1,2,3-triazol-1-yl)tetrahydro-2H-pyran-3,5-diyl diacetate [Example 2.58.203S.]",0.1,"IC50 ([1]; Table 8, hGal-3, read-out: IC50 (Gal-3 inhibition)): 0.03 µM"
